Data as given in patent US10391080B2, “Ketorolac for the treatment of cancer” (Cipla Limited, priority 2016, dated 2019).

How the values were obtained:
Par-4 = settings: mouse embryonic fibroblast (MEF) cells; cited from earlier work
[1] = tested on: tumor cell lines of renal cancer; test: In vitro 3D combination study, clonogenic assay, both cell lines; format: cell-based; settings: Homo sapiens, A498; compound alone, colony formation in soft agar, range over RXF 1183L and RXF A-498; read-out: Relative IC50, single agent
Procedure: The objective of this study was to assess anti-tumor efficacy of ketorolac in combination with sunitinib in a 5×5 matrix combination format against tumor cell lines of renal cancer using a clonogenic assay with image analysis as read-out.
The clonogenic assay was carried out in a 96 well plate format using ultra low attachment plates. For each test cells were prepared as described above, and assay plates were prepared as follows: each test well contained a layer of semi-solid medium with tumor cells (50 μl), and a second layer of medium supernatant with or without test compounds (100 μl). The cell layer consisted of 3×10^3 to 1×10^4 tumor cells per well, which were seeded in 50 μl/well cell culture medium (IMDM, supplemented with 20% (v/v) fetal calf serum, 0.01% (w/v) gentamicin, and 0.4% (w/v) agar). The soft agar layer was immediately covered with 90 μl of the same culture medium without agar. After 24 h the test compounds were added after serial dilution in IMDM and transfer in cell culture medium, and left on the cells for the duration of the experiment (continuous exposure, 100 μL total drug overlay). Every plate included six untreated control wells and drug-treated groups in a layout as shown above. […] At the time of maximum colony formation, counts were performed with an automatic image analysis system (Celllnsight NXT, Thermo Scientific). […]

A498 cells = test: In vivo animal efficacy study, subcutaneous A498 tumor fragments; parameters: species or system female athymic nude mice; settings: for Mean Tumor Volume / Tumor Growth Inhibition (% TGI): Sunitinib 20 mg/kg p.o. q.d. × 21 (G2)
Procedure: 10 Healthy female athymic nude mice were recruited for the donor cell inoculation. Animals were subcutaneously injected at flank region with 10 million A498 cells suspended in 200 μl of media and matrigel. Animals were monitored for solid tumor growth. […] Tumors were fragmented in to ˜30 mg size. […] [table] The tumor sizes were measured weekly twice from the date of tumor appearance till the end of the experiment. Tumor size was measured by digital vernier caliper (MITUTOYO) by measuring length (L=longest axis) and width (W=shortest axis). Tumor Volume was calculated using the formula: […] Form the tumor volume data mean tumor volume and % tumor growth inhibition (% TGI) were calculated (SEM=standard error of mean).

Row | IC50 [1] [µM] | Structure (SMILES) | PAR-4 secretion (Par-4) | Mean Tumor Volume (A498 cells; day 1) [mm^3] | Tumor Growth Inhibition (% TGI) (A498 cells; day 1) [%] | Mean Tumor Volume (A498 cells; day 6) [mm^3] | Tumor Growth Inhibition (% TGI) (A498 cells; day 6) [%] | Mean Tumor Volume (A498 cells; day 9) [mm^3] | Tumor Growth Inhibition (% TGI) (A498 cells; day 9) [%] | Mean Tumor Volume (A498 cells; day 13) [mm^3] | Tumor Growth Inhibition (% TGI) (A498 cells; day 13) [%] | Mean Tumor Volume (A498 cells; day 16) [mm^3] | Tumor Growth Inhibition (% TGI) (A498 cells; day 16) [%] | Mean Tumor Volume (A498 cells; day 20) [mm^3] | Tumor Growth Inhibition (% TGI) (A498 cells; day 20) [%] | Maximum tumor inhibition (A498 cells; Sunitinib alone at a dose of 20 mg/kg) [%]
1 |  | COc1ccc(C2=N[C@@H](c3ccc(Cl)cc3)[C@@H](c3ccc(Cl)cc3)N2C(=O)N2CCNC(=O)C2)c(OC(C)C)c1 [Nutlin-3a] | stimulated PAR-4 secretion at micromolar levels |  |  |  |  |  |  |  |  |  |  |  |  | 
2 | 1.5 to 4.59 | CCN(CC)CCNC(=O)c1c(C)[nH]c(/C=C2\C(=O)Nc3ccc(F)cc32)c1C [Sunitinib] |  | 145.40 | 1.47 | 174.90 | 47.31 | 261.95 | 43.52 | 340.62 | 44.80 | 448.05 | 53.39 | 630.25 | 50.78 | 51
